Measured values: publication PMC5827971 (Cell, 2017)

Legend:
[1] = molecular target: T1, CLYBL (Homo sapiens, UniProt Q8N0X4); test: HPLC-UV discontinuous assay, CoASH formation; assay type: biochemical; conditions: 20 mM glyoxylate, 2.5-200 µM acyl-CoA, 20 mM Tris pH 7.5, 5 mM MgCl2, 1 mM TCEP, 37 °C
T1 sequence (Q8N0X4 23-340): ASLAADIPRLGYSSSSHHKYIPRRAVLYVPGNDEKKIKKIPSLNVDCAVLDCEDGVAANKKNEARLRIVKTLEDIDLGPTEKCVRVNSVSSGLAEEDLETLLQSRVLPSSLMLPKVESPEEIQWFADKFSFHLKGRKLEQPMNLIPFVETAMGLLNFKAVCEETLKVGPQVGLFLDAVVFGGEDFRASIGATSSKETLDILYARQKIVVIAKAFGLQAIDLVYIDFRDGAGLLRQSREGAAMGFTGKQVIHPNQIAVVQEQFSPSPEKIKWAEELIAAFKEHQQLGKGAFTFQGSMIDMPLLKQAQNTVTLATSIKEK

[2] = molecular target: T1, CLYBL; test: HPLC-UV discontinuous assay, acetyl-CoA formation; assay type: biochemical; conditions: citramalyl-CoA lyase; 0.625-80 µM substrate, 20 mM Tris pH 7.5, 5 mM MgCl2, 1 mM TCEP, 37 °C

## CC(=O)SCCNC(=O)CCNC(=O)[C@H](O)C(C)(C)COP(=O)(O)OP(=O)(O)OC[C@H]1O[C@@H](n2cnc3c(N)ncnc32)[C@H](O)[C@@H]1OP(=O)(O)O [acetyl-CoA]
[1]; malate synthase
  KM: KM values for acetyl-CoA or propionyl-CoA, the substrates in the forward reaction

## CC(C)(COP(=O)(O)OP(=O)(O)OC[C@H]1O[C@@H](n2cnc3c(N)ncnc32)[C@H](O)[C@@H]1OP(=O)(O)O)[C@@H](O)C(=O)NCCC(=O)NCCSC(=O)C[C@](C)(O)C(=O)O [citramalyl-CoA]
[2]
  KM: The KM value for citramalyl-CoA is comparable to the KM values for acetyl-CoA or propionyl-CoA

## CCC(=O)SCCNC(=O)CCNC(=O)[C@H](O)C(C)(C)COP(=O)(O)OP(=O)(O)OC[C@H]1O[C@@H](n2cnc3c(N)ncnc32)[C@H](O)[C@@H]1OP(=O)(O)O [propionyl-CoA]
[1]; methylmalate synthase
  KM: KM values for acetyl-CoA or propionyl-CoA, the substrates in the forward reaction
